# Results: PMC5216742, “Discovery and characterization of a novel potent type II native and mutant BCR-ABL inhibitor (CHMFL-074) for Chronic Myeloid Leukemia (CML)” (Oncotarget, 2016)
# Read-outs that look alike come from different tables or passages of the source.
# Legend:
# [1] = In vivo pharmacokinetics study; conditions: male, Sprague-Dawley, plasma, rat; for MRT inf: read-out: MRT(0-∞)
# Description: The final concentration of the stock solution was 1 mg/mL for administration. […] Each time about 0.2 mL blood was collected through the jugular vein adding heparin for anticoagulation and kept on ice. Then plasma was separated by centrifugation at 8000 rpm for 6 minutes at 2–8°C. The obtained plasma was stored at −80°C before analysis. After finishing the test, all surviving animals will be transferred to the repository or euthanasia (CO2 asphyxiation).
# [2] = target: T1, ABL1(H396P)-nonphosphorylated (Homo sapiens, UniProt P00519, H396P); assay: KinomeScan profiling; assay type: binding; conditions: 1 µM CHMFL-074; read-out: % Control
# T1 construct: purchased DiscoveRx (KinomeScan service)
# ABL1 kinase = target: T2, ABL1 kinase (Homo sapiens, UniProt P00519); assay: Invitrogen Z'LYTE biochemical kinase assay
# T2 construct: A construct encoding c-ABL residues 229–500 with a His tag; made in house; host or cells: SF9 insect cells (baculovirus, pFASTHTA)
# Description: A construct encoding c-ABL residues 229–500 with a His tag was cloned into baculovirus expression vector pFASTHTA. The protein was expressed by infecting SF9 cells with high titer viral stocks for 48 hours. Cells were harvested and lysed in 30 mM Tris pH 7.4, 150 mM NaCl, 3 mM KCl, 10% glycerol, 1 mM PMSF, 2 mM TCEP, 1 mM ADP, 20 mM Imidazole. The supernatant was loaded to Ni-NTA Column (QIAGEN, 1018244). Then the proteins were gradient washed using the same buffer with 50 mM, 100 mM imidazole, then the ABL protein was eluted with Elution buffer (20 mM Tris, 500 mM NaCl, 1% glycerol, 1 mM TCEP, 0.5 mM ADP, 300 mM Imidazole, pH 8.0). The eluted protein was loaded on desalt column PD-10(GE) to change the buffer to 20 mM Tris, 500 mM NaCl, 1% glycerol, 2 mM TCEP, pH 8.0. The protein was concentrated to 1 mg/ml and aliquots were frozen and stored at −80 °C.
# The fluorescence resonance energy transfer-based Z′-LYTE kinase assay (Invitrogen, USA) was used to evaluate the IC50 value of CHMFL-074 for inhibition of ABL and KIT kinase. […] After 1 hour incubation, the reaction was developed and terminated, and the fluorescence measured with an automated plate reader (SpectraMax I3, USA). […]
# [3] = target: T3, ABL1(Q252H)-nonphosphorylated (Homo sapiens, UniProt P00519, Q252H); assay: KinomeScan profiling; assay type: binding; conditions: 1 µM CHMFL-074; read-out: % Control
# T3 construct: purchased DiscoveRx (KinomeScan service)
# [4] = system: K562, KU812 and MEG-01 cells; assay: Cell cycle analysis; assay type: cell-based; conditions: K562 (24 h), KU812 (12 h), MEG-01 (24 h)
# Description: K562, KU812 and MEG01 cells were treated with serially diluted CHMFL-074 for 12 or 24 hours. The cells were fixed in 70% cold ethanol and incubated at −20°C overnight, then stained with PI/RNase staining buffer (BD Pharmingen). Flow cytometry was performed using a FACS Calibur (BD), and results were analyzed by ModFit software.
# c-KIT = target: T4, c-KIT (Homo sapiens, UniProt P10721); assay: Invitrogen Z'LYTE biochemical kinase assay
# T4 construct: made in house
# T4 sequence (P10721 26-976): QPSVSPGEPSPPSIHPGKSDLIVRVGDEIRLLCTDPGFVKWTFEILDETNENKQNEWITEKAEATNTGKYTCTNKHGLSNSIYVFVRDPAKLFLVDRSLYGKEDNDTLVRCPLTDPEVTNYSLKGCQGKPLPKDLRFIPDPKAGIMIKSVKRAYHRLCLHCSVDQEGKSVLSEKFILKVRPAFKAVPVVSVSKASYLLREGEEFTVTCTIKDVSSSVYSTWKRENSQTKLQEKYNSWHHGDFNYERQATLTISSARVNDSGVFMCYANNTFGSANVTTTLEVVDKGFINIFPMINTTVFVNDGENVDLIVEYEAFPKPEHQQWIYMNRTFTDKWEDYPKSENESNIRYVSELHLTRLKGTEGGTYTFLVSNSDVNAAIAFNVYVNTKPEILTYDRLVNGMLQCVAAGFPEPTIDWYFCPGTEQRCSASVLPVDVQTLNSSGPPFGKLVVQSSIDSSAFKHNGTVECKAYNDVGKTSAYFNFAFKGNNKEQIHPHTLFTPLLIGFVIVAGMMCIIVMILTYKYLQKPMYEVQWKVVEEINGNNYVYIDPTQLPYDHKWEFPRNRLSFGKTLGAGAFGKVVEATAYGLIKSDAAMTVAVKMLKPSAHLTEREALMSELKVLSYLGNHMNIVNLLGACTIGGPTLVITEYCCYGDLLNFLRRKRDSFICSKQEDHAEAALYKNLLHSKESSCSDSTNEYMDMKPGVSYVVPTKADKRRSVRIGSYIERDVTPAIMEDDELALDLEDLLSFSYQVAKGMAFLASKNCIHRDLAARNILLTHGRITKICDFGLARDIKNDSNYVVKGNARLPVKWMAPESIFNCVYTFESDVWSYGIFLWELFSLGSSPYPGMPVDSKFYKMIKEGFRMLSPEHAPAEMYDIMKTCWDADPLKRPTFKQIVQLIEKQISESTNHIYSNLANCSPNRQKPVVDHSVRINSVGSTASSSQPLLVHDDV
# Description: The fluorescence resonance energy transfer-based Z'-LYTE kinase assay (Invitrogen, USA) was used to evaluate the IC50 value of CHMFL-074 for inhibition of ABL and KIT kinase. […] After 1 hour incubation, the reaction was developed and terminated, and the fluorescence measured with an automated plate reader (SpectraMax I3, USA). A dose-response curve was fitted using Prism 5.0 (GraphPad Software Inc., San Diego, CA).
# DDR1 = target: T5, DDR1 (Homo sapiens, UniProt Q08345); assay: KinomeScan profiling; assay type: binding; conditions: 1 µM CHMFL-074; read-out: % Control
# T5 construct: purchased DiscoveRx (KinomeScan service)
# T5 sequence (Q08345 19-913): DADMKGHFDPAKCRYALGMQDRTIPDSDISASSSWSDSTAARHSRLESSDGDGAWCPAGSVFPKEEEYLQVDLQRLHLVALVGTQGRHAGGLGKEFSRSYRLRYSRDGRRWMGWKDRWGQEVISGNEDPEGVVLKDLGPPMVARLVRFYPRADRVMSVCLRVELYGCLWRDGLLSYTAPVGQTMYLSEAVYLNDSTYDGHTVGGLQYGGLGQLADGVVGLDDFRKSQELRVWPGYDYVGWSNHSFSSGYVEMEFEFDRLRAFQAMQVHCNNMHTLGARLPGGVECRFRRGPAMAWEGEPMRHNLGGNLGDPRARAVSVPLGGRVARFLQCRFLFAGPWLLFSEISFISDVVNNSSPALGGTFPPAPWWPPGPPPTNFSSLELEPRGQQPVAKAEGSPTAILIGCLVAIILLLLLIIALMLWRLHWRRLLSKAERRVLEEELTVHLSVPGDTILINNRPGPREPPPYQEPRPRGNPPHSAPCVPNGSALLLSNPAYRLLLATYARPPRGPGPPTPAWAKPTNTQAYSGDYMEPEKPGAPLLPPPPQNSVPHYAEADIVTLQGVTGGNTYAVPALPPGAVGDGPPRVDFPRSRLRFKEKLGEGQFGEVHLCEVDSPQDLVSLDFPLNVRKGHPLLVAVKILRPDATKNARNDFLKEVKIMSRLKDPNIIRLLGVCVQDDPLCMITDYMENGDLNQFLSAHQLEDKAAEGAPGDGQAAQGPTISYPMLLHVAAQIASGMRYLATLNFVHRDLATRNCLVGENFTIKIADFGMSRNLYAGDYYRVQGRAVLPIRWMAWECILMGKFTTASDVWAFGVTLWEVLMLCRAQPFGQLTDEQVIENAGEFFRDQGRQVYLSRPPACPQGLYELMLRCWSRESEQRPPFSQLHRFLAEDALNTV
# BCR-ABL = target: T6, BCR-ABL (Homo sapiens, UniProt P00519); assay: BCR-ABL auto-phosphorylation (Y245) immunoblotting in K562 cells; assay type: cell-based
# T6 construct: BCR N-terminal part (natural fusion partner of p210 BCR-ABL); endogenous in cells; host or cells: K562
# Description: Cells were washed with ice cold phosphate buffered saline (PBS), lysed using radio-immunoprecipitation (RIPA) buffer [150 mM NaCl, 1% (vol/vol) Nonidet P-40, 0.5% (wt/vol) sodium deoxycholate, 0.1% (wt/vol) SDS] in 50 mM Tris HCl (pH 8.0) supplemented with protease and phosphatase inhibitors (Thermo, USA). Protein concentrations were determined using the BCA Protein Assay kit (Beyotime, China) according to the manufacturer's protocol. Proteins were separated by SDS-PAGE and transferred to an Immobilon-P PVDF membrane (Millipore, USA), and blocked in 5% dry milk in Tris Buffered Saline, with Tween 20 (TBST). Membranes were incubated with primary and secondary antibodies, and target proteins were detected with ECL detection reagent (Pierce, USA). β-Actin (Sigma-Aldrich) served as a loading control. Phospho-c-Abl (Tyr245)(73E5) Rabbit mAb (2868), c-Abl antibody (2862), STAT5 (3H7) Rabbit mAb (9358), Phospho-STAT5 (Tyr694)(C71E5) Rabbit mAb (9314), Akt (pan)(C67E7) Rabbit mAb (4691), Phospho-Akt (Thr308) (244F9) Rabbit mAb (4056), Phospho-Akt (Ser473) (D9E) XP® Rabbit mAb (4060), Phospho-CrkL (Tyr207) antibody (3181), CrkL (32H4) Mouse mAb (3182), Phospho-p44/42 MAPK (Erk1/2) (Thr202/Tyr204) (197G2) Rabbit mAb (4377), p44/42 MAPK (Erk1/2) (137F5) Rabbit mAb (4695) antibodies were obtained from Cell Signaling Technology (MA, USA).
# ABL2 = target: T7, ABL2 (Homo sapiens, UniProt P42684); assay: KinomeScan profiling; assay type: binding; conditions: 1 µM CHMFL-074; read-out: % Control
# T7 construct: purchased DiscoveRx (KinomeScan service)
# T7 sequence (P42684 whole entry): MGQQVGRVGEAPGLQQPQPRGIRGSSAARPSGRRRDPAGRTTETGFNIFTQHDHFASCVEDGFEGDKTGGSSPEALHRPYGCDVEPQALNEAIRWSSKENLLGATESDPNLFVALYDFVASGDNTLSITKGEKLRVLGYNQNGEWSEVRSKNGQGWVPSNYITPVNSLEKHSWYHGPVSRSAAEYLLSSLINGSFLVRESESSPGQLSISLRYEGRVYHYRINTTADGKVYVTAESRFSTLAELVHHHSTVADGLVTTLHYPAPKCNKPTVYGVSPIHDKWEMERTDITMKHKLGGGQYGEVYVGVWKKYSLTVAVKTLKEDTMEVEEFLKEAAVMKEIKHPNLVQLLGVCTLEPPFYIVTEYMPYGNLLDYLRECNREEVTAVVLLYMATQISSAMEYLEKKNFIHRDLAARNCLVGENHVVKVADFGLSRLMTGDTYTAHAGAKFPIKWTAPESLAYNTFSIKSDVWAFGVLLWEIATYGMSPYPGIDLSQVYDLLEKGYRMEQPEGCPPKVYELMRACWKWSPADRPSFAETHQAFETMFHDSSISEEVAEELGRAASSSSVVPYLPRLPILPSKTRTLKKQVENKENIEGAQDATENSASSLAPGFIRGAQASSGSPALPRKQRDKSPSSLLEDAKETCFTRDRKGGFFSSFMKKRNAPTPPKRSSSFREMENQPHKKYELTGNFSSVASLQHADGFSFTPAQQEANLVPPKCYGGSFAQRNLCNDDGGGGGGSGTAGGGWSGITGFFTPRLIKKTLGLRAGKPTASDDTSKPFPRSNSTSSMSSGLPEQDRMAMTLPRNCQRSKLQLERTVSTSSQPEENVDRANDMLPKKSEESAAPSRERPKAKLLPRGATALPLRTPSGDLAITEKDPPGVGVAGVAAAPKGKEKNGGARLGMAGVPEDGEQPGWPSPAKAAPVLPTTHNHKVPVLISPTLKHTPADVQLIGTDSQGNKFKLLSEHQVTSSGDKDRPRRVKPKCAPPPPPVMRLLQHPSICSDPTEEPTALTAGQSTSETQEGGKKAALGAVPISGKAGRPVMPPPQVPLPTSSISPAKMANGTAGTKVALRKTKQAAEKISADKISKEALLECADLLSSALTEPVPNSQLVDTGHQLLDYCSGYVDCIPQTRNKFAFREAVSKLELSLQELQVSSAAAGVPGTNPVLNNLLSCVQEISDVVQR
smiles,measurement,setting,value
Cc1ccc(NC(=O)c2ccc(CN3CCN(C)CC3)c(C(F)(F)F)c2)cc1OC1CCN(C(=O)c2cccnc2)CC1 [CHMFL-074],AUC(0-inf),"[1]; IV 1mg/kg, mean",340 ng·h/mL
same,AUC(0-t),"[1]; IV 1mg/kg, mean",337 ng·h/mL
same,Cmax,"[1]; IV 1mg/kg, mean",739 ng/mL
same,Tmax,"[1]; IV 1mg/kg, mean",0.02 h
same,half-life,"[1]; IV 1mg/kg, mean",73.8 min
same,clearance,"[1]; IV 1mg/kg, mean, read-out: CLz (converted)",49.3 mL/min/kg
same,MRT inf,"[1]; IV 1mg/kg, mean",1.29 h
same,Vd,"[1]; IV 1mg/kg, mean, read-out: Vz",5.25 L/kg
same,AUC(0-inf),"[1]; PO 10 mg/kg, mean",1460 ng·h/mL
same,AUC(0-t),"[1]; PO 10 mg/kg, mean",1130 ng·h/mL
same,Cmax,"[1]; PO 10 mg/kg, mean",190 ng/mL
same,Tmax,"[1]; PO 10 mg/kg, mean",4 h
same,half-life,"[1]; PO 10 mg/kg, mean",203 min
same,MRT inf,"[1]; PO 10 mg/kg, mean",6.58 h
same,bioavailability,"[1]; PO 10 mg/kg, read-out: F (bioavailability)",42.9%
same,remaining binding at 1 µM,[2],0.15%
same,IC50,ABL1 kinase,25 nM
same,remaining binding at 1 µM,[3],0.75%
same,concentration inducing G0/G1 phase cell cycle arrest,[4],≥ 0.3 µM
same,fold less active against c-KIT than ABL1 kinase,c-KIT,about 12 fold
same,IC50,"c-KIT; ATP 300 μM, read-out: IC50 against c-KIT",289 nM
same,remaining binding at 1 µM,DDR1,< 1%
same,EC50,BCR-ABL,< 100 nM
same,remaining binding at 1 µM,ABL2,0.8%
